Test results from ChEMBL document CHEMBL1201862, “PubChem BioAssay data set” (2004).
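Dose response: 5 concentrations. Exposure: 48 h. Format: 96-well plates. Endpoint: linear interpolation; highest concentration if not reached. GI50 marks 50% less growth.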 The source made the active and inactive calls. Rule as the data show it: active = GI50 up to about 1.1 µM and inactive = higher.

Tests used:
Test in all cases: DTP human tumour cell line panel, 48 h
786-0 = system: 786-0
A549 = system: A549
CAKI-1 = system: CAKI-1
DU-145 = system: DU-145
EKVX = system: EKVX
HCC 2998 = system: HCC 2998
HCT-116 = system: HCT-116
HL-60 = system: HL-60
HOP-92 = system: HOP-92
M14 = system: M14
MOLT-4 = system: MOLT-4
NCI-H460 = system: NCI-H460
OVCAR-3 = system: OVCAR-3
PC-3 = system: PC-3
RPMI-8226 = system: RPMI-8226
SF-295 = system: SF-295
SK-OV-3 = system: SK-OV-3
UO-31 = system: UO-31

Structure (SMILES)	GI50 (786-0)	GI50 (A549)	GI50 (CAKI-1)	GI50 (DU-145)	GI50 (EKVX)	GI50 (HCC 2998)	GI50 (HCT-116)	GI50 (HL-60)	GI50 (HOP-92)	GI50 (M14)	GI50 (MOLT-4)	GI50 (NCI-H460)	GI50 (OVCAR-3)	GI50 (PC-3)	GI50 (RPMI-8226)	GI50 (SF-295)	GI50 (SK-OV-3)	GI50 (UO-31)
OCCCCCNc1nc(O)c2[nH]cnc2n1	> 100 µM (inactive)	> 10 µM (inactive)	> 100 µM (inactive)	> 100 µM (inactive)	> 100 µM (inactive)	> 100 µM (inactive)	> 100 µM (inactive)	> 100 µM (inactive)	> 100 µM (inactive)	> 100 µM (inactive)	> 100 µM (inactive)	> 100 µM (inactive)	> 100 µM (inactive)	> 100 µM (inactive)	> 100 µM (inactive)	> 10 µM (inactive)	> 10 µM (inactive)	> 100 µM (inactive)
c1ccc(CNCCCNCCCCNCCCNCc2ccccc2)cc1	1.5 µM (inactive)	14.4 µM (inactive)	10.3 µM (inactive)	12.8 µM (inactive)	9.42 µM (inactive)	5.66 µM (inactive)	2.94 µM (inactive)	0.656 µM (active)	1.42 µM (inactive)	5.46 µM (inactive)	0.834 µM (active)	6.27 µM (inactive)	11.9 µM (inactive)	4.88 µM (inactive)	2.22 µM (inactive)	15.1 µM (inactive)	15.7 µM (inactive)	12.2 µM (inactive)
CC(=O)N[C@@H](Cc1ccc(O)cn1)C(=O)NCc1ccc(Cl)cc1	> 100 µM (inactive)	> 100 µM (inactive)	> 100 µM (inactive)	> 100 µM (inactive)	> 100 µM (inactive)	> 100 µM (inactive)	> 100 µM (inactive)	> 100 µM (inactive)	94.4 µM (inactive)	> 100 µM (inactive)	> 100 µM (inactive)	> 100 µM (inactive)	> 100 µM (inactive)	> 100 µM (inactive)	> 100 µM (inactive)	> 100 µM (inactive)	> 100 µM (inactive)	> 100 µM (inactive)
N#CCCN(CCCN(C(=O)Nc1ccc(NC(=O)N(CCCN(CCC#N)C(N)=O)c2ccccc2)cc1)c1ccccc1)C(N)=O	> 100 µM (inactive)	> 100 µM (inactive)	> 100 µM (inactive)	> 100 µM (inactive)	> 100 µM (inactive)	> 100 µM (inactive)	> 100 µM (inactive)	> 100 µM (inactive)	> 100 µM (inactive)	> 100 µM (inactive)	> 100 µM (inactive)	> 100 µM (inactive)	> 100 µM (inactive)	> 100 µM (inactive)	> 100 µM (inactive)	> 100 µM (inactive)	> 100 µM (inactive)	> 100 µM (inactive)
N=C(N)NS(=O)(=O)c1ccc(/N=N/c2c(O)c(C(=O)O)cc3ccccc23)cc1	> 100 µM (inactive)	> 100 µM (inactive)	> 100 µM (inactive)	> 100 µM (inactive)	> 100 µM (inactive)	> 100 µM (inactive)	> 100 µM (inactive)	> 100 µM (inactive)	> 100 µM (inactive)	> 100 µM (inactive)	> 100 µM (inactive)	> 100 µM (inactive)	> 100 µM (inactive)	> 100 µM (inactive)	> 100 µM (inactive)	> 100 µM (inactive)	> 100 µM (inactive)	> 100 µM (inactive)
CC(C)(C)NC(=O)N1N=C(c2ccccc2)C1c1ccccc1 (stereo not drawn)	15.7 µM (inactive)	31.5 µM (inactive)	26.4 µM (inactive)	> 100 µM (inactive)	42.6 µM (inactive)	> 100 µM (inactive)	19.7 µM (inactive)	32.6 µM (inactive)	22.3 µM (inactive)	61.5 µM (inactive)	–	41.1 µM (inactive)	21.5 µM (inactive)	26.6 µM (inactive)	22.5 µM (inactive)	35.6 µM (inactive)	> 100 µM (inactive)	18.2 µM (inactive)
CN(C)c1ccc(C(=O)NCCCCCCC(=O)NO)cc1	0.973 µM (active)	0.514 µM (active)	0.465 µM (active)	0.335 µM (active)	1.52 µM (inactive)	0.348 µM (active)	0.169 µM (active)	0.397 µM (active)	0.713 µM (active)	0.565 µM (active)	0.241 µM (active)	0.417 µM (active)	0.519 µM (active)	0.53 µM (active)	0.195 µM (active)	0.326 µM (active)	0.299 µM (active)	0.557 µM (active)
NNc1ccccc1Cl	> 100 µM (inactive)	> 100 µM (inactive)	30.9 µM (inactive)	> 100 µM (inactive)	> 100 µM (inactive)	> 100 µM (inactive)	> 100 µM (inactive)	2.88 µM (inactive)	> 100 µM (inactive)	> 100 µM (inactive)	36.2 µM (inactive)	41.4 µM (inactive)	38.7 µM (inactive)	69.2 µM (inactive)	> 100 µM (inactive)	27.3 µM (inactive)	> 100 µM (inactive)	89.1 µM (inactive)
Cc1ccc(Nc2nc3[nH]ccc3c(=O)[nH]2)cc1	> 100 µM (inactive)	66.1 µM (inactive)	85.5 µM (inactive)	53.6 µM (inactive)	76.2 µM (inactive)	71.6 µM (inactive)	> 100 µM (inactive)	75.5 µM (inactive)	> 100 µM (inactive)	> 100 µM (inactive)	39.7 µM (inactive)	> 100 µM (inactive)	33 µM (inactive)	37.8 µM (inactive)	> 100 µM (inactive)	72.9 µM (inactive)	> 100 µM (inactive)	57.3 µM (inactive)
O=c1c2ccccc2n2nnc3ccc(NCCCNCCNCCCNc4ccc5nnn6c7ccccc7c(=O)c4c56)c1c32	0.48 µM (active)	0.612 µM (active)	3.86 µM (inactive)	5.77 µM (inactive)	7.03 µM (inactive)	0.308 µM (active)	0.207 µM (active)	1.1 µM (active)	> 10.6 µM (inactive)	> 12.6 µM (inactive)	0.0582 µM (active)	0.505 µM (active)	6.35 µM (inactive)	3.21 µM (inactive)	0.716 µM (active)	5.89 µM (inactive)	> 20.3 µM (inactive)	2.86 µM (inactive)
CCN(CC)c1c(-c2c(OC(C)C)c(=O)c2=O)c(=O)n2ccsc2c1OC(C)=O	> 100 µM (inactive)	–	> 100 µM (inactive)	> 100 µM (inactive)	71.9 µM (inactive)	> 100 µM (inactive)	> 100 µM (inactive)	85.3 µM (inactive)	> 100 µM (inactive)	> 100 µM (inactive)	> 100 µM (inactive)	> 100 µM (inactive)	> 100 µM (inactive)	> 100 µM (inactive)	34.8 µM (inactive)	> 100 µM (inactive)	> 100 µM (inactive)	> 100 µM (inactive)
O=C(CNc1ccc([N+](=O)[O-])cc1)Nn1c(-c2ccccc2)nc2ccccc2c1=O	2.4 µM (inactive)	8.77 µM (inactive)	2.24 µM (inactive)	8.91 µM (inactive)	13.4 µM (inactive)	9.02 µM (inactive)	3.03 µM (inactive)	2.26 µM (inactive)	0.377 µM (active)	3.03 µM (inactive)	1.89 µM (inactive)	3.81 µM (inactive)	6.93 µM (inactive)	3.07 µM (inactive)	2.47 µM (inactive)	14.5 µM (inactive)	3.97 µM (inactive)	4.32 µM (inactive)
COc1ccc2c(c1)O[C@@H]1[C@@H](OC3OC(CO)C(O)C(O)C3O)Oc3cc(OC)c(OC)cc3[C@]1(O)C2=O (stereo partly drawn)	> 100 µM (inactive)	> 100 µM (inactive)	> 100 µM (inactive)	> 100 µM (inactive)	> 100 µM (inactive)	> 100 µM (inactive)	> 100 µM (inactive)	1.11 µM (active)	> 100 µM (inactive)	> 100 µM (inactive)	> 100 µM (inactive)	> 100 µM (inactive)	> 100 µM (inactive)	> 100 µM (inactive)	> 100 µM (inactive)	> 100 µM (inactive)	> 100 µM (inactive)	> 100 µM (inactive)
O=C1/C(=C\c2ccco2)Oc2ccccc21	> 100 µM (inactive)	> 100 µM (inactive)	> 100 µM (inactive)	> 100 µM (inactive)	42.9 µM (inactive)	> 100 µM (inactive)	> 100 µM (inactive)	39.4 µM (inactive)	> 100 µM (inactive)	> 100 µM (inactive)	23.7 µM (inactive)	> 100 µM (inactive)	98.9 µM (inactive)	> 100 µM (inactive)	89.5 µM (inactive)	> 100 µM (inactive)	> 100 µM (inactive)	76.2 µM (inactive)
CSc1nc(C)cc(Nc2ccc(O)c(CN3CCOCC3)c2)n1	> 100 µM (inactive)	> 100 µM (inactive)	> 100 µM (inactive)	> 100 µM (inactive)	83 µM (inactive)	> 100 µM (inactive)	> 100 µM (inactive)	> 100 µM (inactive)	62.8 µM (inactive)	> 100 µM (inactive)	53.6 µM (inactive)	> 100 µM (inactive)	> 100 µM (inactive)	> 100 µM (inactive)	> 100 µM (inactive)	> 100 µM (inactive)	> 100 µM (inactive)	71 µM (inactive)
